Measured values: patent publication US9718828B2 (MERCK SHARP & DOHME CORP., priority 2011, dated 2017)
Structures can show the parent of a compound that is named as a salt.

What follows are compounds tested against hBTK (full-length BTK, 6HIS-tag cleaved) (Homo sapiens (Human), UniProt Q06187) (assay: BTK enzymatic activity, LANCE TR-FRET assay (Assay Method C)). Conditions: LANCE TR-FRET, 50 pM hBTK, 25 μM ATP; class 100-1000 is given as ≧100 nM-<1 μM; read-out: IC50 Btk activity values - Assay Method C.
Sequence of hBTK (full-length BTK, 6HIS-tag cleaved) (Q06187 whole entry): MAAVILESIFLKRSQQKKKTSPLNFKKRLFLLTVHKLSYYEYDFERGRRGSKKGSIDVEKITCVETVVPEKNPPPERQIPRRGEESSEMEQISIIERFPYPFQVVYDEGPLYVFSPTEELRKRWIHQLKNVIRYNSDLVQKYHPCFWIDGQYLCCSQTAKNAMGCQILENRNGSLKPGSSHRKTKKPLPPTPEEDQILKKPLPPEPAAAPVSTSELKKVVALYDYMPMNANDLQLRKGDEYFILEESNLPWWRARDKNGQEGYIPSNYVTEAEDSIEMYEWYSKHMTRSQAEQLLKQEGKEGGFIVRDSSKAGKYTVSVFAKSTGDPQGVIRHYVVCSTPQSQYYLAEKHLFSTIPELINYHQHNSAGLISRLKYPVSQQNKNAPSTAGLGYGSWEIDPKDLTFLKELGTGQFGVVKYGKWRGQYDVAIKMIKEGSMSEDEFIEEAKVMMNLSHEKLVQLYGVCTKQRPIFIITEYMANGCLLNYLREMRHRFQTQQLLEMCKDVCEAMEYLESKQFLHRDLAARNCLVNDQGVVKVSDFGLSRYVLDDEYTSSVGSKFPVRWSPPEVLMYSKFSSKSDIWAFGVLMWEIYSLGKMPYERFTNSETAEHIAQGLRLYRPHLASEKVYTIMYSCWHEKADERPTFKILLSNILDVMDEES
Format: biochemical
Compound `Cc1ccnc(NC(=O)c2ccc(-c3nc([C@@H]4CCCN(C(=O)C5(C)COC5)C4)n4c(Cl)cnc(N)c34)cc2)c1` [Example 446, 4-(8-amino-5-chloro-3-{(3R)-1-[(3-methyloxetan-3-yl)carbonyl]piperidin-3-yl}imidazo[1,5-a]pyrazin-1-yl)-N-(4-methylpyridin-2-yl)benzamide] has an IC50 of less than 0.01 µM.
`CS(=O)(=O)CC(=O)N1CCO[C@@H](c2nc(-c3ccc(C(=O)Nc4cc(C(F)(F)F)ccn4)cc3)c3c(N)nccn23)C1` [Example 545, 4-(8-amino-3-{(2R)-4-[(methylsulfonyl)acetyl]morpholin-2-yl}imidazo[1,5-a]pyrazin-1-yl)-N-[4-(trifluoromethyl)pyridin-2-yl]benzamide] was tested, and the IC50 was less than 0.01 µM.
For `COc1ccc(NC(=O)c2ccc(-c3nc([C@@H]4CCCN(C(=O)C5(C)COC5)C4)n4ccnc(N)c34)cc2)nc1` [Example 325, (R)-4-(8-amino-3-(1-(3-methyloxetane-3-carbonyl)piperidin-3-yl)imidazo[1,5-a]pyrazin-1-yl)-N-(5-methoxypyridin-2-yl)benzamide], the IC50 was 0.01 to 0.1 µM.
`Cc1cc(NC(=O)c2ccc(-c3nc([C@@H]4CCCN(C(=O)C5(C)COC5)C4)n4ccnc(N)c34)cc2)no1` [Example 353, 4-(8-amino-3-{(3R)-1-[(3-methyloxetan-3-yl)carbonyl]piperidin-3-yl}imidazo[1,5-a]pyrazin-1-yl)-N-(5-methylisoxazol-3-yl)benzamide] was tested, and the IC50 was 0.1 to 1 µM.
In the case of `COCCN1CCO[C@@H](c2nc(-c3ccc(C(=O)Nc4cc(C(F)(F)F)ccn4)cc3)c3c(N)ncc(C)n23)C1` [Example 539, 4-{8-amino-3-[(2R)-4-(2-methoxyethyl)morpholin-2-yl]-5-methylimidazo[1,5-a]pyrazin-1-yl}-N-[4-(trifluoromethyl)pyridin-2-yl]benzamide, TFA salt], the IC50 is reported as less than 0.01 µM.
`CN1C[C@@H](c2nc(-c3ccc(C(=O)Nc4cc(C(F)(F)F)ccn4)cc3)c3c(N)nccn23)CC[C@H]1C(F)(F)F` [Example 414, 4-{8-amino-3-[(3S,6S)-1-methyl-6-(trifluoromethyl)piperidin-3-yl]imidazo[1,5-a]pyrazin-1-yl}-N-[4-(trifluoromethyl)pyridin-2-yl]benzamide] showed an IC50 of less than 0.01 µM.
Work on `C[C@H]1CC[C@@H](c2nc(-c3ccc(C(=O)Nc4cc(OCC(F)(F)F)ccn4)cc3)c3c(N)nccn23)CN1C(=O)C1(C)COC1` [Example 418, 4-(8-amino-3-{(3R,6S)-6-methyl-1-[(3-methyloxetan-3-yl)carbonyl]piperidin-3-yl}imidazo[1,5-a]pyrazin-1-yl)-N-[4-(2,2,2-trifluoroethoxy)pyridin-2-yl]benzamide] yielded an IC50 of less than 0.01 µM.
Compound `Cc1ccnc(NC(=O)c2ccc(-c3nc([C@@H]4CCCN(C(=O)C5(C)COC5)C4)n4ccnc(N)c34)cc2)c1` [Example 352, 4-(8-amino-3-{(3R)-1-[(3-methyloxetan-3-yl)carbonyl]piperidin-3-yl}imidazo[1,5-a]pyrazin-1-yl)-N-(4-methylpyridin-2-yl)benzamide] has an IC50 of less than 0.01 µM.
`COCCC(=O)N1CCC[C@@H](c2nc(-c3ccc(C(=O)Nc4cc(C(F)(F)F)ccn4)cc3F)c3c(N)nccn23)C1` [Example 576, 4-{8-amino-3-[(3R)-1-(3-methoxypropanoyl)piperidin-3-yl]imidazo[1,5-a]pyrazin-1-yl}-3-fluoro-N-[4-(trifluoromethyl)pyridin-2-yl]benzamide, TFA salt] gave an IC50 of less than 0.01 µM.
With `Nc1ncc(Cl)n2c([C@H]3CN(CCO)CCO3)nc(-c3ccc(C(=O)Nc4cc(C(F)(F)F)ccn4)cc3)c12` [Example 535, 4-{8-amino-5-chloro-3-[(2R)-4-(2-hydroxyethyl)morpholin-2-yl]imidazo[1,5-a]pyrazin-1-yl}-N-[4-(trifluoromethyl)pyridin-2-yl]benzamide, TFA salt] the IC50 was less than 0.01 µM.
Work on `Nc1nccn2c([C@@H]3CCCN(C(=O)c4cnsn4)C3)nc(-c3ccc(C(=O)Nc4cc(C(F)(F)F)ccn4)cc3)c12` [Example 330, 4-{8-amino-3-[(3R)-1-(1,2,5-thiadiazol-3-ylcarbonyl)piperidin-3-yl]imidazo[1,5-a]pyrazin-1-yl}-N-[4-(trifluoromethyl)pyridin-2-yl]benzamide] yielded an IC50 of less than 0.01 µM.
For `Cc1ccnc(NC(=O)c2ccc(-c3nn([C@@H]4CCCN(C(=O)C5(C)COC5)C4)c4ccnc(N)c34)cc2)c1` [Example 387, 4-(4-amino-1-{(3R)-1-[(3-methyloxetan-3-yl)carbonyl]piperidin-3-yl}-1H-pyrazolo[4,3-c]pyridin-3-yl)-N-(4-methylpyridin-2-yl)benzamide], the IC50 was less than 0.01 µM.
For `Cc1cnc(N)c2c(-c3ccc(C(=O)Nc4cc(C(F)(F)F)ccn4)cc3)nc([C@H]3CN(C(=O)[C@@H](C)O)CCO3)n12` [Example 544, 4-(8-amino-3-{(2R)-4-[(2R)-2-hydroxypropanoyl]morpholin-2-yl}-5-methylimidazo[1,5-a]pyrazin-1-yl)-N-[4-(trifluoromethyl)pyridin-2-yl]benzamide], the IC50 was less than 0.01 µM.
For `CC1(C(=O)N2CCC[C@@H](c3nc(-c4ccc(C(=O)Nc5cc(OC(F)F)ccn5)cc4F)c4c(N)nccn34)C2)COC1` [Example 478, 4-(8-amino-3-{(3R)-1-[(3-methyloxetan-3-yl)carbonyl]piperidin-3-yl}imidazo[1,5-a]pyrazin-1-yl)-N-[4-(difluoromethoxy)pyridin-2-yl]-3-fluorobenzamide], the IC50 was less than 0.01 µM.
In the case of `Nc1ncnc2c1c(-c1ccc(C(=O)Nc3cc(C(F)(F)F)ccn3)cc1)nn2[C@@H]1CCCc2[nH]ncc21` [Example 554, 4-{4-amino-1-[(4R)-4,5,6,7-tetrahydro-1H-indazol-4-yl]-1H-pyrazolo[3,4-d]pyrimidin-3-yl}-N-[4-(trifluoromethyl)pyridin-2-yl]benzamide, TFA salt], the IC50 is reported as 0.01 to 0.1 µM.
Work on `Cc1ccnc(NC(=O)c2ccc(-c3nc([C@@H]4CCCN(C(=O)C5(C)COC5)C4)n4c(Cl)cnc(N)c34)c(F)c2)c1` [Example 448, 4-(8-amino-5-chloro-3-{(3R)-1-[(3-methyloxetan-3-yl)carbonyl]piperidin-3-yl}imidazo[1,5-a]pyrazin-1-yl)-3-fluoro-N-(4-methylpyridin-2-yl)benzamide] yielded an IC50 of less than 0.01 µM.
Work on `CC(C)N1CC(C(=O)N2CCC[C@@H](c3nc(-c4ccc(C(=O)Nc5cc(C(F)(F)F)ccn5)cc4)c4c(N)nccn34)C2)C1` [Example 329, 4-{8-amino-3-[(3R)-1-{[1-(1-methylethyl)azetidin-3-yl]carbonyl}piperidin-3-yl]imidazo[1,5-a]pyrazin-1-yl}-N-[4-(trifluoromethyl)pyridin-2-yl]benzamide] yielded an IC50 of less than 0.01 µM.
`CN(C)C(=O)N1C[C@@H](c2nc(-c3ccc(C(=O)Nc4cc(C(F)(F)F)ccn4)cc3)c3c(N)nccn23)CC[C@@H]1C(F)(F)F` [Example 426, (2R,5S)-5-[8-amino-1-(4-{[4-(trifluoromethyl)pyridin-2-yl]carbamoyl}phenyl)imidazo[1,5-a]pyrazin-3-yl]-N,N-dimethyl-2-(trifluoromethyl)piperidine-1-carboxamide] gave an IC50 of less than 0.01 µM.
`Nc1ncnc2c1c(-c1ccc(C(=O)Nc3cc(C(F)(F)F)ccn3)cc1)nn2[C@@H]1CCCc2nn(CCO)cc21` [Example 562, 4-{4-amino-1-[(4R)-2-(2-hydroxyethyl)-4,5,6,7-tetrahydro-2H-indazol-4-yl]-1H-pyrazolo[3,4-d]pyrimidin-3-yl}-N-[4-(trifluoromethyl)pyridin-2-yl]benzamide, TFA salt] gave an IC50 of less than 0.01 µM.
`CC1(C(=O)N2CCC[C@@H](c3nc(-c4ccc(C(=O)Nc5cc(C6CCC6)ccn5)cc4)c4c(N)nccn34)C2)COC1` [Example 354, 4-(8-amino-3-{(3R)-1-[(3-methyloxetan-3-yl)carbonyl]piperidin-3-yl}imidazo[1,5-a]pyrazin-1-yl)-N-(4-cyclobutylpyridin-2-yl)benzamide] showed an IC50 of less than 0.01 µM.
`C[C@H]1CC[C@@H](c2nc(-c3ccc(C(=O)Nc4cc(C(C)(F)F)ccn4)cc3)c3c(N)nccn23)CN1C(=O)C1(C)COC1` [Example 413, 4-(8-amino-3-{(3R,6S)-6-methyl-1-[(3-methyloxetan-3-yl)carbonyl]piperidin-3-yl}imidazo[1,5-a]pyrazin-1-yl)-N-[4-(1,1-difluoroethyl)pyridin-2-yl]benzamide] gave an IC50 of less than 0.01 µM.
In the case of `C[C@H]1CC[C@@H](c2nc(-c3ccc(C(=O)Nc4cc(C(F)(F)F)ccn4)c(Cl)c3)c3c(N)nccn23)CN1C(=O)C1(C)COC1` [Example 400, 4-(8-amino-3-{(3R,6S)-6-methyl-1-[(3-methyloxetan-3-yl)carbonyl]piperidin-3-yl}imidazo[1,5-a]pyrazin-1-yl)-2-chloro-N-[4-(trifluoromethyl)pyridin-2-yl]benzamide], the IC50 is reported as less than 0.01 µM.
Work on `Cc1cnc(N)c2c(-c3ccc(C(=O)Nc4cc(C(F)(F)F)ccn4)cc3)nc([C@H]3CN(C(=O)C(F)F)CCO3)n12` [Example 538, 4-{8-amino-3-[(2R)-4-(difluoroacetyl)morpholin-2-yl]-5-methylimidazo[1,5-a]pyrazin-1-yl}-N-[4-(trifluoromethyl)pyridin-2-yl]benzamide, TFA salt] yielded an IC50 of less than 0.01 µM.
Compound `COCCC(=O)N1C[C@H](c2nc(-c3ccc(C(=O)Nc4cc(C(F)(F)F)ccn4)c(F)c3)c3c(N)nccn23)CC[C@@H]1C` [Example 392, 4-{8-amino-3-[(3R,6S)-1-(3-methoxypropanoyl)-6-methylpiperidin-3-yl]imidazo[1,5-a]pyrazin-1-yl}-2-fluoro-N-[4-(trifluoromethyl)pyridin-2-yl]benzamide] has an IC50 of less than 0.01 µM.
Work on `Nc1nccn2c([C@H]3CC[C@@H](CO)N(C(=O)C4CC4)C3)nc(-c3ccc(C(=O)Nc4cc(C(F)(F)F)ccn4)cc3)c12` [Example 419, 4-{8-amino-3-[(3S,6S)-1-(cyclopropylcarbonyl)-6-(hydroxymethyl)piperidin-3-yl]imidazo[1,5-a]pyrazin-1-yl}-N-[4-(trifluoromethyl)pyridin-2-yl]benzamide] yielded an IC50 of less than 0.01 µM.

Same assay, conditions: Table D; Assay Method C (LANCE TR-FRET), 50 pM hBTK, 25 μM ATP; read-out: IC50 BTK activity value
Compound `C[C@H]1CC[C@@H](c2nc(-c3ccc(C(=O)Nc4cc(C(C)(F)F)ccn4)cc3)c3c(N)nccn23)CN1C(=O)C1(C)COC1` [Example 413, 4-(8-amino-3-{(3R,6S)-6-methyl-1-[(3-methyloxetan-3-yl)carbonyl]piperidin-3-yl}imidazo[1,5-a]pyrazin-1-yl)-N-[4-(1,1-difluoroethyl)pyridin-2-yl]benzamide] has an IC50 of 0.0002 µM.
`C[C@H]1CC[C@@H](c2nc(-c3ccc(C(=O)Nc4cc(C(F)(F)F)ccn4)c(Cl)c3)c3c(N)nccn23)CN1C(=O)C1(C)COC1` [Example 400, 4-(8-amino-3-{(3R,6S)-6-methyl-1-[(3-methyloxetan-3-yl)carbonyl]piperidin-3-yl}imidazo[1,5-a]pyrazin-1-yl)-2-chloro-N-[4-(trifluoromethyl)pyridin-2-yl]benzamide] gave an IC50 of 0.00096 µM.
